Results taken from ChEMBL document CHEMBL5058646 (2022).

Experiments:
[1] = target: Serine/threonine-protein kinase 4 (Homo sapiens) (UniProt Q13043); test: STK4 SGC Tm panel (DSF); settings: Compound concentration 20.0 uM
[2] = target: Serine/threonine-protein kinase 38-like (Homo sapiens) (UniProt Q9Y2H1); test: STK38L SGC Tm panel (DSF); settings: Compound concentration 20.0 uM
[3] = target: Mitogen-activated protein kinase 8 (Homo sapiens) (UniProt P45983); test: MAPK8 SGC Tm panel (DSF); settings: Compound concentration 20.0 uM
Mitogen-activated protein kinase 8 (Homo sapiens), sequence (P45983 whole entry, the tested form may be a part): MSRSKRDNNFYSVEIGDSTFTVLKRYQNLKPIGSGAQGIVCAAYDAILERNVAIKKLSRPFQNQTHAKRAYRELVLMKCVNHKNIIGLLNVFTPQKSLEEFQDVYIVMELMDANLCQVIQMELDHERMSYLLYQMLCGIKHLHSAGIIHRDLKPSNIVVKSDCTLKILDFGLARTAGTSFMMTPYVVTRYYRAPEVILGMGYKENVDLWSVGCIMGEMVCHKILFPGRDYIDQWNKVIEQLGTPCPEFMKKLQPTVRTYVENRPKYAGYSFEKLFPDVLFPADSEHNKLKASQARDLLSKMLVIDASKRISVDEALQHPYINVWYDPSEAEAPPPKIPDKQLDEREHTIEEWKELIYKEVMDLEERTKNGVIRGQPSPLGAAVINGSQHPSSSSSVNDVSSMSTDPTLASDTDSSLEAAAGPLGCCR

[4] = target: T1, Zinc finger and BTB domain-containing protein 11 (Homo sapiens) (UniProt O95625); settings: SUD4, Compound concentration 1.0 uM
T1 sequence (whole entry): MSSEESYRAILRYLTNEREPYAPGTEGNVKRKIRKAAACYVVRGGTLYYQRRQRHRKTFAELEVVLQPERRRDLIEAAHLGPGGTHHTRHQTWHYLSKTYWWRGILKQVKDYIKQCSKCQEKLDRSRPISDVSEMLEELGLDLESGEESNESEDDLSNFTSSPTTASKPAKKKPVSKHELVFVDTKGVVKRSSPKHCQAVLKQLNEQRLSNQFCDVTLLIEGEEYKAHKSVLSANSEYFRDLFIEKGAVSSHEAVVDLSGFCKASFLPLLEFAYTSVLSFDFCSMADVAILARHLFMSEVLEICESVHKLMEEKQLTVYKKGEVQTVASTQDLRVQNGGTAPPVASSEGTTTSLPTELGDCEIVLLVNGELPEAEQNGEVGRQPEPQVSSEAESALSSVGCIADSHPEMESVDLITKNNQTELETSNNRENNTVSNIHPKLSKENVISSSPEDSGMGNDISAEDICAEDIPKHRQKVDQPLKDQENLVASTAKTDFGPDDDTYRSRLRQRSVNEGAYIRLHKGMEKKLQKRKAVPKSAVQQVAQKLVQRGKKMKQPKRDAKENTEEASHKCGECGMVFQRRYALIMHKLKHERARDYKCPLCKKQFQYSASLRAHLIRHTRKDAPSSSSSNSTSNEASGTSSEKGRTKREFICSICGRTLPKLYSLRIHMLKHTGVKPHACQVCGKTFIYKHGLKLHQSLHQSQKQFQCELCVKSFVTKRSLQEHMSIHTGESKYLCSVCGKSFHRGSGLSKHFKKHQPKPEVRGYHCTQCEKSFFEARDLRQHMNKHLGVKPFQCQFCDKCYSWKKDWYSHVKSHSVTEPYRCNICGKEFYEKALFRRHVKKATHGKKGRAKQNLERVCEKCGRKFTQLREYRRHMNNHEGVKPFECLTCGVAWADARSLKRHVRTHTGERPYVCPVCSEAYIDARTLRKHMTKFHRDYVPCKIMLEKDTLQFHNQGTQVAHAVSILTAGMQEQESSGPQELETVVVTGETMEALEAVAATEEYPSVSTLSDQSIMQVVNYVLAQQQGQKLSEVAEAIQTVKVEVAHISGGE

[5] = target: Calcium/calmodulin-dependent protein kinase type IV (Homo sapiens) (UniProt Q16566); test: CAMK4 SGC Tm panel (DSF); settings: Compound concentration 20.0 uM
Calcium/calmodulin-dependent protein kinase type IV (Homo sapiens), sequence (Q16566 whole entry): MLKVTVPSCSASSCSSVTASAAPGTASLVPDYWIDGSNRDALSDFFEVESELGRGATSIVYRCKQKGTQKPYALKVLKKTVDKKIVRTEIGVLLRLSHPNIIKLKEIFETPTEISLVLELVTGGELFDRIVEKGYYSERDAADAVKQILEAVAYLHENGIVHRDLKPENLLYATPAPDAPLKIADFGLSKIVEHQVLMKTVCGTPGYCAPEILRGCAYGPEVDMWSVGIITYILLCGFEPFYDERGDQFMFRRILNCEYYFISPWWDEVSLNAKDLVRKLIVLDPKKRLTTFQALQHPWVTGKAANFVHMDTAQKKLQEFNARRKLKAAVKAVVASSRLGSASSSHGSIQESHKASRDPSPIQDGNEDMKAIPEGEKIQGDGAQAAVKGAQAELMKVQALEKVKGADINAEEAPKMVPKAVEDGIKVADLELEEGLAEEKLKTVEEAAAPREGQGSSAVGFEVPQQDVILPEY

[6] = target: Sigma non-opioid intracellular receptor 1 (Homo sapiens) (UniProt Q99720); settings: Compound concentration 10.0 uM
Sigma non-opioid intracellular receptor 1 (Homo sapiens), sequence (Q99720 whole entry): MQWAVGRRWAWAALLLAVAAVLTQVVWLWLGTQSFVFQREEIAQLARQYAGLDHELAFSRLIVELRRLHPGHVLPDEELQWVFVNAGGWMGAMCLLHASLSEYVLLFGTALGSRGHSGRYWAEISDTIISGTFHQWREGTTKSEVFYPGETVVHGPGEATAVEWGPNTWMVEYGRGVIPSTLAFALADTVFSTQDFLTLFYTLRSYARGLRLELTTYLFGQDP

[7] = target: Serine/threonine-protein kinase PAK 1 (Homo sapiens) (UniProt Q13153); test: PAK1 SGC Tm panel (DSF); settings: Compound concentration 20.0 uM
Serine/threonine-protein kinase PAK 1 (Homo sapiens), sequence (Q13153 whole entry): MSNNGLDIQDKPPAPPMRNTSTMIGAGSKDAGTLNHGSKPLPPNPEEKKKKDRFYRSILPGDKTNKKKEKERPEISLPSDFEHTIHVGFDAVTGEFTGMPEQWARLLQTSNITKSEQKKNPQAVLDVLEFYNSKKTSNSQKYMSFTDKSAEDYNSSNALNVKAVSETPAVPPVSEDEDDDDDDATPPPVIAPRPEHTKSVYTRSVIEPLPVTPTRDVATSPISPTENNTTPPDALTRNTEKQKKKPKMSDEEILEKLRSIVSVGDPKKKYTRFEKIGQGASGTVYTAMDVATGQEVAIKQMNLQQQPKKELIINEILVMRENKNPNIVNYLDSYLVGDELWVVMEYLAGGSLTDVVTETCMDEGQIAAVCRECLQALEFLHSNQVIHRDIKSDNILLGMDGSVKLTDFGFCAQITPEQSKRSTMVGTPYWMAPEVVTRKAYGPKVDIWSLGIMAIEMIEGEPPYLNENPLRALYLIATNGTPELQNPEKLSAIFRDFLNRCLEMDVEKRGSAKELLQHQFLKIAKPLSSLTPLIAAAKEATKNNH

[8] = target: T2, Zinc finger protein 131 (Homo sapiens) (UniProt P52739); settings: SUD4, Compound concentration 1.0 uM
T2 sequence (whole entry): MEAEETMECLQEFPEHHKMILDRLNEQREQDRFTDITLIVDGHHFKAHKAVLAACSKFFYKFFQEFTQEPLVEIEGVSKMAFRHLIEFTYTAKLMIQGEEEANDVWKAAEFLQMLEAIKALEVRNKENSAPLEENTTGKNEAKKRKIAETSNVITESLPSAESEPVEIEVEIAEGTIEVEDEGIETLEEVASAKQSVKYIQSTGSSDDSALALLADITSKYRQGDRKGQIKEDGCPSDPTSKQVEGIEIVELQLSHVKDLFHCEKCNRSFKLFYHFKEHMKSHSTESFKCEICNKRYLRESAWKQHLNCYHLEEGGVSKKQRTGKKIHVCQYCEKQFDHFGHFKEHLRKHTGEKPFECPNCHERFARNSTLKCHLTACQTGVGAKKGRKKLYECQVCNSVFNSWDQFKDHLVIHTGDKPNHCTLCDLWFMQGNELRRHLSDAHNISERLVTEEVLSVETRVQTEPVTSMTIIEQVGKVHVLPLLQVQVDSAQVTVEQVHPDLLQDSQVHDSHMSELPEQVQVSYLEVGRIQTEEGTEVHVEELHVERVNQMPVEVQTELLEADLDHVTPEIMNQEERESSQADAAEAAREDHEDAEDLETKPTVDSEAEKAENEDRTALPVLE

[9] = target: Sodium-dependent noradrenaline transporter (Homo sapiens) (UniProt P23975); settings: Compound concentration 10.0 uM
Sodium-dependent noradrenaline transporter (Homo sapiens), sequence (P23975 whole entry): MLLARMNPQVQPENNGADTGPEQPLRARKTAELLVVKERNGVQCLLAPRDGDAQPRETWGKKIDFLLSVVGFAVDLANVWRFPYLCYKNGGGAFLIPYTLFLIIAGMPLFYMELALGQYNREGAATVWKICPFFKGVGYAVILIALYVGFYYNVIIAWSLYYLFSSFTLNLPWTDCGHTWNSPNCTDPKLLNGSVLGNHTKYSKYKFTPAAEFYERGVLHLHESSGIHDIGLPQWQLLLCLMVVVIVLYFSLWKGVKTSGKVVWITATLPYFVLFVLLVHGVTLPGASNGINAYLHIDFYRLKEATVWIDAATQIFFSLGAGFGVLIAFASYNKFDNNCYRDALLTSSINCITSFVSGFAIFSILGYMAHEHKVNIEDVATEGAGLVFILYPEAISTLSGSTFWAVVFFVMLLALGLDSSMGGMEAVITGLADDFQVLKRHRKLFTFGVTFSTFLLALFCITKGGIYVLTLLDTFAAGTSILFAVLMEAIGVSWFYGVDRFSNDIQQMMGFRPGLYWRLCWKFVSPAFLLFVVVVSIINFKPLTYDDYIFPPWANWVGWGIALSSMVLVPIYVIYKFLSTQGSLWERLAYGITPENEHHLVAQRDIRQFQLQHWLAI

[10] = target: Serine/threonine-protein kinase DCLK1 (Homo sapiens) (UniProt O15075); test: DCAMKL1 SGC Tm panel (DSF); settings: Compound concentration 20.0 uM
Serine/threonine-protein kinase DCLK1 (Homo sapiens), sequence (O15075 whole entry, the tested form may be a part): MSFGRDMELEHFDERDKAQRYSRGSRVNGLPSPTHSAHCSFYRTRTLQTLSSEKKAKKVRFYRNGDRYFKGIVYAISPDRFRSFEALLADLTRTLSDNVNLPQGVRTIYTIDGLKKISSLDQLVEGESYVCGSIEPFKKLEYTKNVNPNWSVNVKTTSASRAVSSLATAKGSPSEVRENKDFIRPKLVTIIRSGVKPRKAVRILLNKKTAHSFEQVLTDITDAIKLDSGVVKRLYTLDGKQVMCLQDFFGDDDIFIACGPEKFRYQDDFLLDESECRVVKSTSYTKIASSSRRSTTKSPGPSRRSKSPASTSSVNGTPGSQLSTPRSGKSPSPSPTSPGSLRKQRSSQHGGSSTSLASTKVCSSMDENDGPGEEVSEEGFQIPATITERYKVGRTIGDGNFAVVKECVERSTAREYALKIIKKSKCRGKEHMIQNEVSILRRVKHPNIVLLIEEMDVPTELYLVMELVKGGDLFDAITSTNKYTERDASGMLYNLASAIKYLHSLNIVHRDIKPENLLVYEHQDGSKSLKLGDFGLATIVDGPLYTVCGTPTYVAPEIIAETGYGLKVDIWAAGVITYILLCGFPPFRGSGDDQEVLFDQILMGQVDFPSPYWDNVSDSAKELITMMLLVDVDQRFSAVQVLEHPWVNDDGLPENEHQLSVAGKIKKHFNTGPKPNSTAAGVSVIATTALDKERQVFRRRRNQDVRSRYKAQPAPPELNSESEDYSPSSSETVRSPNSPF

[11] = target: T3, Zinc finger and BTB domain-containing protein 1 (Homo sapiens) (UniProt Q9Y2K1); settings: OCI-Ly1, Compound concentration 1.0 uM
T3 sequence (whole entry): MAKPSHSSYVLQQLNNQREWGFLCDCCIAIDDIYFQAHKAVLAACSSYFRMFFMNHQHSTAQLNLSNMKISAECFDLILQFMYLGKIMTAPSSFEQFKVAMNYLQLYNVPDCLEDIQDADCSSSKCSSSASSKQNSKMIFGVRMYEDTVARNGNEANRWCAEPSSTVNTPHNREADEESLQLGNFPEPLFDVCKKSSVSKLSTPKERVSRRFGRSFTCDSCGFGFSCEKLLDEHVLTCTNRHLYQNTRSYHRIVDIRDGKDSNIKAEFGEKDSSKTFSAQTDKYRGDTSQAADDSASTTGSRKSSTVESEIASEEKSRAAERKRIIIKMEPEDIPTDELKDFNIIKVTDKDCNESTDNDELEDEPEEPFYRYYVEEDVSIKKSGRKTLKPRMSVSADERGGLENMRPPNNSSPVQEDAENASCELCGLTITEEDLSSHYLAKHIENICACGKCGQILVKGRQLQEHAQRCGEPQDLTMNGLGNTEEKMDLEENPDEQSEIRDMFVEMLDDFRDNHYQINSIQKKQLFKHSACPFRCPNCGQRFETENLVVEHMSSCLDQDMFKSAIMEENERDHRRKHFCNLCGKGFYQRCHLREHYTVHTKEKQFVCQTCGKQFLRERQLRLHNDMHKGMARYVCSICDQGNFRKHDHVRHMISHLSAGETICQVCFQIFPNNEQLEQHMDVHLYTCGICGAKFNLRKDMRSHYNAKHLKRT

[12] = target: 5-hydroxytryptamine receptor 2B (Homo sapiens) (UniProt P41595); settings: Compound concentration 10.0 uM
5-hydroxytryptamine receptor 2B (Homo sapiens), sequence (P41595 whole entry): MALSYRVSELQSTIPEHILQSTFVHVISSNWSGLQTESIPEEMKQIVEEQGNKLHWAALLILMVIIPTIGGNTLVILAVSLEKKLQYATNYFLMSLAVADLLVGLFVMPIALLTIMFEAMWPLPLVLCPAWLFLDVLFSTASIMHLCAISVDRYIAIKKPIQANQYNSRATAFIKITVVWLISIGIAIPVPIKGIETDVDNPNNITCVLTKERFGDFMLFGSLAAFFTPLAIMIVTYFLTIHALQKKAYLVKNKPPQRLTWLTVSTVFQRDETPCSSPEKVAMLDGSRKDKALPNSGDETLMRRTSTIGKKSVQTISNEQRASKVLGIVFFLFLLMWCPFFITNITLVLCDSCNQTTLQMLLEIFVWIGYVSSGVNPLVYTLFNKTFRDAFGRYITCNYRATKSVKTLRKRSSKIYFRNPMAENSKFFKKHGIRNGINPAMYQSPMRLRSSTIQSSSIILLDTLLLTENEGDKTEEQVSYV

Serine/threonine-protein kinase 4 (Homo sapiens), sequence (Q13043 whole entry): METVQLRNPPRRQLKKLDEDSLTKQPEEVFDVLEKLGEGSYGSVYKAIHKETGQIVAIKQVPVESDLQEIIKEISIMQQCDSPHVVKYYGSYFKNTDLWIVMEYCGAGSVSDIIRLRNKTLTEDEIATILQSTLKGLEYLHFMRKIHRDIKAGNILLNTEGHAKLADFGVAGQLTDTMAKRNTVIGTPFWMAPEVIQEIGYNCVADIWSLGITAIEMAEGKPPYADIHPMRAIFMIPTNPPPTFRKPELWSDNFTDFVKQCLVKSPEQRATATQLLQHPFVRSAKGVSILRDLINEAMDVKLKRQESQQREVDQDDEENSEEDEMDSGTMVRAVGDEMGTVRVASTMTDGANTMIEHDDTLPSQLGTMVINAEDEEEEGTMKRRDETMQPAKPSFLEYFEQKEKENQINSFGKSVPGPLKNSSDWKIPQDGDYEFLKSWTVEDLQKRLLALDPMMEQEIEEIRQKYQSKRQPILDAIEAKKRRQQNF
Serine/threonine-protein kinase 38-like (Homo sapiens), sequence (Q9Y2H1 2-464 limits assumed): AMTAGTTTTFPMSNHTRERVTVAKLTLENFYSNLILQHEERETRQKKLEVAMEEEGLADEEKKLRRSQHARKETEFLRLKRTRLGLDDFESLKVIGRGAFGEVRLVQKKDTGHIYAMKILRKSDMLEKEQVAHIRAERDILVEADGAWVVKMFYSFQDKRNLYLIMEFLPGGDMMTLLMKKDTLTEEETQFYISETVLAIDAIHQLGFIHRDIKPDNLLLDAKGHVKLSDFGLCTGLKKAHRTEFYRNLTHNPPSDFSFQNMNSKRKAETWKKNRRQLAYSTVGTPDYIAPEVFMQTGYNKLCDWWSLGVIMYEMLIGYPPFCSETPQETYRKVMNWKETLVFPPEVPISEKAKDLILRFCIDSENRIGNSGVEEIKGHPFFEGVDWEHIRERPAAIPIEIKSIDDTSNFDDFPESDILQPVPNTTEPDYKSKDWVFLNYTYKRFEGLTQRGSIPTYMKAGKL

C[C@@H]1CN(c2ncc(Cl)c(Nc3ccc4c(c3)n(CCC(C)(C)O)c(=O)n4C)n2)C[C@H](C)C1(F)F
inactive: Tm [1] 46 °C | Tm [2] 47 °C | Tm [3] 43 °C | LogFC [4] -0.0504 | Tm [5] 48 °C | inhibition [6] 47.4% | Tm [7] 46 °C | LogFC [8] -0.044 | inhibition [9] 18.1% | Tm [10] 42 °C | LogFC [11] -0.0612 | inhibition [12] 34.6%
